Assays:
Assay in all cases: relative viability (nuclei count vs DMSO), 5 days (fraction); higher = more cells survive
RERF-LC-KJ = tested on: RERF-LC-KJ
Method in brief: (§1)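 Five library-drug doses in √10 steps were combined with a fixed anchor-drug dose, or a single drug was given alone, by pin tool to lung cancer cell lines in 1536-well plates the day after seeding. Nuclei were stained and counted after 5 days. Relative viability is the nuclei count in treated wells over that in vehicle wells, taken as the median of duplicate plates.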

NCI-H1734 = tested on: NCI-H1734
Method in brief: as §1

NCI-H661 = tested on: NCI-H661
Method in brief: as §1

NCI-H1975 = tested on: NCI-H1975
Method in brief: as §1

NCI-H1650 = tested on: NCI-H1650
Method in brief: as §1

LCLC-97TM1 = tested on: LCLC-97TM1
Method in brief: as §1

NCI-H2228 = tested on: NCI-H2228
Method in brief: as §1

HCC-827 = tested on: HCC-827
Method in brief: as §1

PC-3 [JPC-3] = tested on: PC-3 [JPC-3]
Method in brief: as §1

HCC-15 = tested on: HCC-15
Method in brief: as §1

NCI-H1755 = tested on: NCI-H1755
Method in brief: as §1

CAL-12T = tested on: CAL-12T
Method in brief: as §1

H3255 = tested on: H3255
Method in brief: as §1

NCI-H322M = tested on: NCI-H322M
Method in brief: as §1

EKVX = tested on: EKVX
Method in brief: as §1

PC-14 = tested on: PC-14
Method in brief: as §1

NCI-H1355 = tested on: NCI-H1355
Method in brief: as §1

NCI-H520 = tested on: NCI-H520
Method in brief: as §1

NCI-H2342 = tested on: NCI-H2342
Method in brief: as §1

NCI-H2405 = tested on: NCI-H2405
Method in brief: as §1

LK-2 = tested on: LK-2
Method in brief: as §1

O=c1cc(N2CCOCC2)oc2c(-c3cccc4c3sc3ccccc34)cccc12 + O=C(CCCCCCC(=O)Nc1ccccc1)NO [Vorinostat] (partner 1 µM)
relative viability (RERF-LC-KJ; first compound 0.01 µM): 0.76
relative viability (RERF-LC-KJ; first compound 0.03162 µM): 0.694
relative viability (RERF-LC-KJ; first compound 0.1 µM): 0.775
relative viability (RERF-LC-KJ; first compound 0.3162 µM): 0.64
relative viability (RERF-LC-KJ; first compound 1 µM): 0.707
relative viability (NCI-H1734; first compound 0.01 µM): 0.839
relative viability (NCI-H1734; first compound 0.03162 µM): 0.819
relative viability (NCI-H1734; first compound 0.1 µM): 0.631
relative viability (NCI-H1734; first compound 0.3162 µM): 0.773
relative viability (NCI-H1734; first compound 1 µM): 0.819
relative viability (NCI-H661; first compound 0.01 µM): 0.761
relative viability (NCI-H661; first compound 0.03162 µM): 0.793
relative viability (NCI-H661; first compound 0.1 µM): 0.836
relative viability (NCI-H661; first compound 0.3162 µM): 0.79
relative viability (NCI-H661; first compound 1 µM): 0.765
relative viability (NCI-H1975; first compound 0.01 µM): 0.672
relative viability (NCI-H1975; first compound 0.03162 µM): 0.69
relative viability (NCI-H1975; first compound 0.1 µM): 0.733
relative viability (NCI-H1975; first compound 0.3162 µM): 0.641
relative viability (NCI-H1975; first compound 1 µM): 0.368
relative viability (NCI-H1650; first compound 0.01 µM): 0.485
relative viability (NCI-H1650; first compound 0.03162 µM): 0.692
relative viability (NCI-H1650; first compound 0.1 µM): 0.547
relative viability (NCI-H1650; first compound 0.3162 µM): 0.631
relative viability (NCI-H1650; first compound 1 µM): 0.49
relative viability (LCLC-97TM1; first compound 0.01 µM): 0.699
relative viability (LCLC-97TM1; first compound 0.03162 µM): 0.725
relative viability (LCLC-97TM1; first compound 0.1 µM): 0.3
relative viability (LCLC-97TM1; first compound 0.3162 µM): 0.66
relative viability (LCLC-97TM1; first compound 1 µM): 0.784
relative viability (NCI-H2228; first compound 0.01 µM): 0.669
relative viability (NCI-H2228; first compound 0.03162 µM): 0.896
relative viability (NCI-H2228; first compound 0.1 µM): 0.562
relative viability (NCI-H2228; first compound 0.3162 µM): 0.651
relative viability (NCI-H2228; first compound 1 µM): 0.722
relative viability (HCC-827; first compound 0.01 µM): 0.897
relative viability (HCC-827; first compound 0.03162 µM): 0.848
relative viability (HCC-827; first compound 0.1 µM): 0.643
relative viability (HCC-827; first compound 0.3162 µM): 0.779
relative viability (HCC-827; first compound 1 µM): 0.774
relative viability (PC-3 [JPC-3]; first compound 0.01 µM): 0.76
relative viability (PC-3 [JPC-3]; first compound 0.03162 µM): 0.774
relative viability (PC-3 [JPC-3]; first compound 0.1 µM): 0.859
relative viability (PC-3 [JPC-3]; first compound 0.3162 µM): 0.896
relative viability (PC-3 [JPC-3]; first compound 1 µM): 0.401
relative viability (HCC-15; first compound 0.01 µM): 0.839
relative viability (HCC-15; first compound 0.03162 µM): 0.775
relative viability (HCC-15; first compound 0.1 µM): 0.858
relative viability (HCC-15; first compound 0.3162 µM): 0.765
relative viability (HCC-15; first compound 1 µM): 0.847
relative viability (NCI-H1755; first compound 0.01 µM): 0.828
relative viability (NCI-H1755; first compound 0.03162 µM): 0.775
relative viability (NCI-H1755; first compound 0.1 µM): 0.793
relative viability (NCI-H1755; first compound 0.3162 µM): 0.741
relative viability (NCI-H1755; first compound 1 µM): 0.834
relative viability (CAL-12T; first compound 0.01 µM): 0.967
relative viability (CAL-12T; first compound 0.03162 µM): 0.828
relative viability (CAL-12T; first compound 0.1 µM): 0.727
relative viability (CAL-12T; first compound 0.3162 µM): 0.748
relative viability (CAL-12T; first compound 1 µM): 0.618
relative viability (H3255; first compound 0.01 µM): 0.83
relative viability (H3255; first compound 0.03162 µM): 0.837
relative viability (H3255; first compound 0.1 µM): 0.759
relative viability (H3255; first compound 0.3162 µM): 0.765
relative viability (H3255; first compound 1 µM): 0.558
relative viability (NCI-H322M; first compound 0.01 µM): 0.826
relative viability (NCI-H322M; first compound 0.03162 µM): 0.92
relative viability (NCI-H322M; first compound 0.3162 µM): 0.871
relative viability (NCI-H322M; first compound 1 µM): 0.678
relative viability (EKVX; first compound 0.01 µM): 0.723
relative viability (EKVX; first compound 0.03162 µM): 0.748
relative viability (EKVX; first compound 0.1 µM): 0.681
relative viability (EKVX; first compound 0.3162 µM): 0.753
relative viability (EKVX; first compound 1 µM): 0.736
relative viability (PC-14; first compound 0.01 µM): 0.682
relative viability (PC-14; first compound 0.03162 µM): 0.75
relative viability (PC-14; first compound 0.1 µM): 0.713
relative viability (PC-14; first compound 0.3162 µM): 0.84
relative viability (PC-14; first compound 1 µM): 0.768
relative viability (NCI-H1355; first compound 0.01 µM): 0.681
relative viability (NCI-H1355; first compound 0.03162 µM): 0.613
relative viability (NCI-H1355; first compound 0.1 µM): 0.598
relative viability (NCI-H1355; first compound 0.3162 µM): 0.663
relative viability (NCI-H1355; first compound 1 µM): 0.598
relative viability (NCI-H520; first compound 0.01 µM): 0.775
relative viability (NCI-H520; first compound 0.03162 µM): 0.755
relative viability (NCI-H520; first compound 0.1 µM): 0.689
relative viability (NCI-H520; first compound 0.3162 µM): 0.728
relative viability (NCI-H520; first compound 1 µM): 0.794
relative viability (NCI-H2342; first compound 0.01 µM): 0.708
relative viability (NCI-H2342; first compound 0.03162 µM): 0.828
relative viability (NCI-H2342; first compound 0.1 µM): 0.748
relative viability (NCI-H2342; first compound 0.3162 µM): 0.729
relative viability (NCI-H2342; first compound 1 µM): 0.637
relative viability (NCI-H2405; first compound 0.01 µM): 1.01
relative viability (NCI-H2405; first compound 0.03162 µM): 1.04
relative viability (NCI-H2405; first compound 0.1 µM): 1.04
relative viability (NCI-H2405; first compound 0.3162 µM): 1.01
relative viability (NCI-H2405; first compound 1 µM): 0.736
relative viability (LK-2; first compound 0.01 µM): 0.343
relative viability (LK-2; first compound 0.03162 µM): 0.267
relative viability (LK-2; first compound 0.1 µM): 0.345
relative viability (LK-2; first compound 0.3162 µM): 0.233
relative viability (LK-2; first compound 1 µM): 0.27

— the supplement of paper PMC10307832
